Key:
SK-MEL-28 melanoma cells [1] = experiment: FACS cell cycle analysis (PI), SK-MEL-28; assay type: cell-based, human; conditions: SK-MEL-28, 100 μM, 48 hours
Experimental: (A) Cell cycle FACS analyses of PI stained BLM and SK-MEL-28 melanoma cells. 100 μM of 8-PN-induced a G2 arrest in both cells. (B) FACS analyses of BLM and SK-MEL-28 melanoma cells treated with 100 μM 6-PN or 8-PN and stained for annexin V/PI; staurosporin was used as control for apoptosis induction and DMSO as vehicle control. […] (C) BLM and SK-MEL-28 melanoma cells were treated with 100 μM of PNs; TSA, SAHA and EMSO were used as controls.
(§1) To further analyze the possibility of apoptosis induction, an extensive apoptosis assay was performed on SK-MEL-28 melanoma cells 4 hours after treatment with 100 μM 6-PN or 8-PN (FIG. 9). […] This was verified by FACS cell cycle analyses to screen for a possible increase of the sub-G1 fraction of cells (apoptotic cells) or for the induction of a G2 arrest (inhibition of proliferation). […] To further differentiate between the induction of apoptosis and/or necrosis an PI/Annexin V staining of SK-MEL-28 and BLM cells was performed 4 hours and 24 hours after the treatment with 6-PN or 8-PN; 10 μM staurosporin (6 hours treatment) was used as positive control for the induction of apoptosis; DMSO treatment was used as vehicle control. The cells were then analyzed by FACS.

[2] = system: estrogen receptors of the rat uterus; conditions: cited from earlier work
LOXIMVI melanoma cells = experiment: Organotypic human epidermal skin reconstructs, LOXIMVI; assay type: cell-based; conditions: same treatment conditions (100 μM), untreated 100% MIB1 positive
Experimental: FIG. 11: 6-PN and 8-PN reduce proliferation and invasion of BLM and LOXIMVI melanoma cells in human epidermal skin reconstructs and induce little embryo toxicity. (A) BLM melanoma cells and keratinocytes were seeded on top of a collagen matrix populated by fibroblasts. After 16 days a keratinizing stratified epithelium with a rudimentary corium is formed. […] (B) Similar results were obtained for LOXIMVI melanoma cells under the same treatment conditions. Only nests of dead, MIB1 negative LOXIMVI cells were detected after treatment with the PNs. […]
In this assay, keratinocytes and melanoma cells are seeded on top of a collagen matrix populated by fibroblasts. […] Untreated control BLM cells (depicting 70-80% proliferation, determined by MIB1 immunhistochemistry) had formed a large tumor in the epidermal part of the reconstruct and had invaded the corium (FIG. 11A, upper panel). To determine the amount of proliferating cells, the number of MIB1 positive melanoma cells per power field in the epidermal part of the reconstruct at the epidermal-dermal border was counted (40× magnification, n=5 adjacent fields examined). Further, the number of melanoma cells invading the dermal part of the reconstruct was counted in the same high power fields. In reconstructs with untreated BLM cells, 103±15 MIB1 positive cells and 39±13 invasive cells were counted (FIG. 11A, upper panel). […]

MCF7-cells = conditions: cited from earlier work
SK-MEL-28 melanoma cells [3] = experiment: Apoptosis antibody array (35 proteins); assay type: cell-based, human; conditions: SK-MEL-28, 100 μM, 4 hours
Experimental: Apoptosis assay (35 proteins) performed on lysates of SK-MEL-28 melanoma cells 4 hours after treatment with 100 μM of 6-PN or 8-PN. Protein expression levels were estimated performing a densitometric analysis. Neither 6-PN nor 8-PN yielded a significant change of expression of the analyzed proteins involved in apoptosis.
Testing of apoptosis induction was performed with the human Proteom-Profiler-Apoptosis-Antibody-Array-Kit (R & D Systems, Wiesbaden, Germany) as described by the manufacturer after treatment of SK-MEL-28 melanoma cells with 100 μM 6-PN or 100 μM 8-PN for 4 hours.
as §1

[4] = system: human HDAC enzymes from nuclear extract of HeLa cells; experiment: HDAC inhibitor screening assay (HeLa nuclear extract); assay type: biochemical; conditions: 6-PN 5 μM, 8-PN 10 μM
Experimental: FIG. 2: In silico docking analysis with 6-PN and 8-PN illustrates the inhibitory potential on human-derived HDACs of class I and II. (A) Results of the in silico docking analysis of 6-PN and 8-PN with crystal structures of HDAC2 (class I) and HDAC4 (class II). […] Both molecules are predicted to interact with the zinc ion as well as other residues of the catalytic center. Docking analyses of 6-PN and 8-PN in the individual HDAC binding pockets were performed using GOLD (version 4.1.2) and MOE (version 2009.10). (B) Overall HDAC inhibition in cellular extracts of the human cell line HeLa by increasing concentrations of 6-PN and 8-PN (5 μM, 10 μM, 20 μM, 50 μM and 100 μM). As reference inhibitor 100 μM SAHA was used. Every concentration was tested three times in triplicates. Shown are the mean±SD. (C) Specific fluometric profiling assay using recombinant human HDACs of classes I, II and IV. Specific inhibition values were generated for the treatment with 100 μM 6-PN and 8-PN. TSA was used as reference inhibitor (HDAC1, 2, 3, 6, 10, 11: 10 nM; HDAC4, 8, 9: 1 μM; HDAC5, 7:10 μM). The inhibition vales for every HDAC were yielded by one experiment performed in duplicates Shown are the mean±S.A. […]

CC(C)=CCc1c(O)cc(O)c2c1OC(c1ccc(O)cc1)CC2=O (stereo not shown) [8-PN, 5,7-Dihydroxy-2-(4-hydroxy-phenyl)-8-(3-methyl-but-2-enyl)-chroman-4-one]
sub-G1 fraction (apoptotic cells) (SK-MEL-28 melanoma cells [1]): remained unaffected | cells in the G2 phase (SK-MEL-28 melanoma cells [1]; DMSO control 20.1%): 49.8% | binding affinity for estrogen receptors [2]: strong binding affinity | cell proliferation of LOXIMVI cells (MIB1) (LOXIMVI melanoma cells): completely inhibited | apoptosis (MCF7-cells): induces the apoptosis | apoptosis induction (expression of 35 apoptosis proteins, densitometric) (SK-MEL-28 melanoma cells [3]): not apoptosis related | HDAC inhibitory effect at low concentration [4]: showed inhibitory effects

Source: patent US20160067211A1, “PHARMACEUTICAL COMPOSITION” (Eberhard Karls Universitaet Tuebingen Medizinische Fakultaet, priority 2013, published 2016)
